# Laboratory results as given in patent publication US20250109127A1, “METHODS OF USE OF PHENOXYPROPYLAMINE COMPOUNDS TO TREAT DEPRESSION” (Minerva Neurosciences, Inc., priority 2013, published 2025).
# Where “and” joins values, the source holds several entries; their conditions need not be identical. Equal values may be shown once.
# Tested on: DOPAC release in the rat prefrontal cortex
# Experiment: Microdialysis: DOPAC release in prefrontal cortex after I.P. administration
# Format: in vivo
# Conditions: Citalopram 10 mg/kg I.P.
# Procedure: The aim of the study was to evaluate, using microdialysis, the effects of an intraperitoneal (I.P.) administration in rats of three different doses of SON-117 on dopamine and its metabolites, serotonin and its metabolite (5-HIAA), and norepinephrine levels in prefrontal cortex.
# Thirty-two adult male Wistar rats were used for the whole study (4 groups of eight animals planned for the study, Table 1).
# Surgery was performed on rats weighing about 300 g at the beginning of the experiments. Rats were anaesthetized with Ketamine (50 mg/kg) & Xylazine (15 mg/kg) by intramuscular administration. The animals were placed in a stereotaxic apparatus in the flat-skull position at a constant setting of −3.3 mm between ear bars and the incisor bar. The animals were treated with a local anesthesic (xylocaine 1%, Astra Zeneca) and an analgesic (Temgesic, from Schering Plough, 0.05 mg/kg, s.c.). A rostrocaudal midline incision was made with a lancet to expose the dorsal skull surface. The “stereotaxic zero” was defined by the Bregma in accordance with Paxinos and Watson's atlas (1986). A hole was drilled in the skull with a drill and the meninges were pierced with a sterile needle to implant a CMA12 guide cannula which later received the dialysis probe.
# Coordinates used for implanting guide cannula in prefrontal cortex from Bregma were anteroposterior 3.7 mm, mediolateral 0.8 mm, and dorsoventral −2 mm (top of the probe was at −5 mm). The guide cannula was fixed to the skull with two stainless steel screws (1.88 mm outside diameter) anchored. An application of dental cement was added. A plastic collar allowed each animal to be tethered to a Swivel assembly of the CMA 120 awake animal system. Following surgery, rats were kept in individual cages and allowed to recover for a minimum of 3-5 days before the experimentation. The rats were handled and put in plastic bowl for 10 min at least every day to habituate the animals to their new environment for the dialysis. An I.P. administration with saline was also performed every day.
# Dialysis probes (CMA12/3 mm, membrane, 20 kD cut-off, Carnegie Medicine, Stockholm, Sweden), were carefully washed before inserting into the guide cannula. The wash was performed with the artificial cerebrospinal fluid (aCSF) medium (NaCl 147 mM, KCl 2.7 mM, CaCl2 1.2 mM, MgCl2 0.85 mM) at room temperature. The dialysis system was then equilibrated at 20° C. at a perfusion rate of 1 μl/min with a Carnegie pump (CMA100). All catheters (FEP tubing, internal volume of 1.2 μl/10 cm, and tubing adaptors) used for microdialysis were treated in the same conditions.
# The probes duly prepared were inserted into the guide cannula and the CMA120 Swivel assembly secured to the animal using a plastic collar. Flow through the dialysis probe with aCSF was maintained at a rate of 1 μl/min during the whole experimentation. The first four fractions (corresponding to 2 hours) were discarded to avoid the effects of parenchymal disturbance and to ensure that an approximate steady-state level was reached. Fractions were then collected over a period of 8.5 h during which time the animals remained quiet. The dialysates were automatically collected with an autosampler (microfraction collector CMA 140, Carnegie Medicin) and stored at −80° C. until analysis. […] Perfusion was then maintained for 7 hours with aCSF. The dialysates (30 μl) were collected into 300 μl vials, transferred into dry ice and then kept frozen (−80° C.) until analysis. Frozen samples were shipped to a partner for analysis. At the end of the microdialysis study, a PBS with colored ink was perfused through the probe in order to visualize the dialyzed area.
# Catecholamine assay: Concentrations of dopamine, DOPAC, HVA, 5-HIAA, 5-HT, and norepinephrin were determined for each sample by HPLC coupled with electrochemical detection.
compound,measurement,setting,value
"CN(C)CCCC1(c2ccc(F)cc2)OCc2cc(C#N)ccc21 (centres unmarked) [Citalopram, citalopram, reference compound]","DOPAC in dialysate, MEAN",T0-T30 min,92.52 % of respective basal
same,"DOPAC in dialysate, MEAN",T30-T1 h,101.61 % of respective basal
same,"DOPAC in dialysate, individual animals",T30-T1 h,108.24 % of respective basal and 101.84 % of respective basal and 110.81 % of respective basal and 140.94 % of respective basal and 90.86 % of respective basal and 86.64 % of respective basal and 74.29 % of respective basal and 104.04 % of respective basal
same,"DOPAC in dialysate, MEAN",T1 h 30-T2 h,103.07 % of respective basal
same,"DOPAC in dialysate, individual animals",T1 h 30-T2 h,97.22 % of respective basal and 94.96 % of respective basal and 95.81 % of respective basal and 121.29 % of respective basal and 99.84 % of respective basal and 90.48 % of respective basal and 98.93 % of respective basal and 130.18 % of respective basal
same,"DOPAC in dialysate, MEAN",T1 h-T1 h 30,102.71 % of respective basal
same,"DOPAC in dialysate, individual animals",T1 h-T1 h 30,108.8 % of respective basal and 86.27 % of respective basal and 95.17 % of respective basal and 138.08 % of respective basal and 88.43 % of respective basal and 88.97 % of respective basal and 77.44 % of respective basal and 143.24 % of respective basal
same,"DOPAC in dialysate, MEAN",T2 h 30-T3 h,86.26 % of respective basal
same,"DOPAC in dialysate, individual animals",T2 h 30-T3 h,68.83 % of respective basal and 76.04 % of respective basal and 88.98 % of respective basal and 94.72 % of respective basal and 88.97 % of respective basal and 81.12 % of respective basal and 86.11 % of respective basal and 108.52 % of respective basal
same,"DOPAC in dialysate, MEAN",T2 h-T2 h 30,91.70 % of respective basal
same,"DOPAC in dialysate, individual animals",T2 h-T2 h 30,100.58 % of respective basal and 87.15 % of respective basal and 91.10 % of respective basal and 94.66 % of respective basal and 82.72 % of respective basal and 76.32 % of respective basal and 84.28 % of respective basal and 120.05 % of respective basal
same,"DOPAC in dialysate, MEAN",T3 h 30-T4 h,92.94 % of respective basal
same,"DOPAC in dialysate, individual animals",T3 h 30-T4 h,98.62 % of respective basal and 88.8 % of respective basal and 84.72 % of respective basal and 92.54 % of respective basal and 81.68 % of respective basal and 80.31 % of respective basal and 88.84 % of respective basal and 131.20 % of respective basal
same,"DOPAC in dialysate, MEAN",T3 h-T3 h 30,89.35 % of respective basal
same,"DOPAC in dialysate, individual animals",T3 h-T3 h 30,108.36 % of respective basal and 74.94 % of respective basal and 89.42 % of respective basal and 83.63 % of respective basal and 84.95 % of respective basal and 77.32 % of respective basal and 85.84 % of respective basal and 113.17 % of respective basal
same,"DOPAC in dialysate, MEAN",T4 h 30-T5 h,97.96 % of respective basal
same,"DOPAC in dialysate, individual animals",T4 h 30-T5 h,118.57 % of respective basal and 89.81 % of respective basal and 82.60 % of respective basal and 77.02 % of respective basal and 90.64 % of respective basal and 94.78 % of respective basal and 95.64 % of respective basal and 137.22 % of respective basal
same,"DOPAC in dialysate, MEAN",T4 h-T4 h 30,94.89 % of respective basal
same,"DOPAC in dialysate, individual animals",T4 h-T4 h 30,107.03 % of respective basal and 83.51 % of respective basal and 92.76 % of respective basal and 82.75 % of respective basal and 83.92 % of respective basal and 79.63 % of respective basal and 104.47 % of respective basal and 127.87 % of respective basal
same,"DOPAC in dialysate, MEAN",T5 h 30-T6 h,101.76 % of respective basal
same,"DOPAC in dialysate, individual animals",T5 h 30-T6 h,132.77 % of respective basal and 85.32 % of respective basal and 85.38 % of respective basal and 97.98 % of respective basal and 88.27 % of respective basal and 108.01 % of respective basal and 92.66 % of respective basal and 127.03 % of respective basal
same,"DOPAC in dialysate, MEAN",T5 h-T5 h 30,93.03 % of respective basal
same,"DOPAC in dialysate, individual animals",T5 h-T5 h 30,75.53 % of respective basal and 93.40 % of respective basal and 85.99 % of respective basal and 86.97 % of respective basal and 95.22 % of respective basal and 104.27 % of respective basal and 122.75 % of respective basal
same,"DOPAC in dialysate, MEAN",T6 h 30-T7 h,100.53 % of respective basal
same,"DOPAC in dialysate, individual animals",T6 h 30-T7 h,119.00 % of respective basal and 87.46 % of respective basal and 83.16 % of respective basal and 92.30 % of respective basal and 79.40 % of respective basal
same,"DOPAC in dialysate, MEAN",T6 h-T6 h 30,96.87 % of respective basal
same,"DOPAC in dialysate, individual animals",T6 h-T6 h 30,117.46 % of respective basal and 79.52 % of respective basal and 81.29 % of respective basal and 39.89 % of respective basal and 77.98 % of respective basal and 106.17 % of respective basal and 94.72 % of respective basal and 131.51 % of respective basal
same,"DOPAC in dialysate, MEAN",T-30 min-T0 (pre-dose),96.20 % of respective basal
same,"DOPAC in dialysate, MEAN",T-1 h-T-30 min (pre-dose),98.03 % of respective basal
